The results in this text go back to patent US20240246937A1 (MERCK SHARP & DOHME LLC, priority 2021, published 2024).

This assay deals with recombinant IL4I1 (Homo sapiens (Human), UniProt Q96RQ9). In words: IL4I1 Enzymatic Assay (Amplex Red/HRP coupled fluorescence detection of H2O2). Format: biochemical. The conditions noted are these: 240 min; recombinant IL4I1, four-hour pre-incubation with compound. How it is done: Interleukin 4 inducible protein 1 (IL4I1) is an L-amino oxidase that catalyzes the oxidation of aromatic residues (Phe, Trp and Tyr): L-amino acid+H2O+O2→2-oxo acid+NH3+H2O2. Equal molar of H2O2 and the corresponding alpha-ketoacid are produced when IL4I1 and substrate are added. In this assay, the hydrogen peroxide generated by IL4I1 is then detected through a coupled reaction with Amplex® Red (10-acetyl-3,7-dihydroxyphenoxazine) and horseradish peroxidase (HRP) to produce resorufin product that could be detected in the form of fluorescence signals. The assessment of the inhibitory effect of small molecules (EC50) on IL4I1 is measured by the effectiveness of the compounds to inhibit the production of H2O2.
Using this assay, the potency (EC50) of each compound was determined from a ten-point (1:3 serial dilution) titration curve using the following outlined procedure. To each well of a black flat-bottom Greiner (Cat #781076) 384 well-plate, 25 nL of compound (0.1% DMSO in final assay volume of 25 μL) was dispensed, followed by the addition of 12.5 μL of 1× assay buffer (50 mM Hepes 7.0 and 0.005% Tween20 (Sigma, Cat #P8341; low peroxide grade)) containing 2 nM of recombinant IL4I1 (R&D Systems, Cat #5684-AO-020). Plates were placed in an ambient temperature humidified chamber for a four-hour pre-incubation with compound. Subsequently, each reaction was initiated by the addition of 12.5 μL 1× assay buffer containing 2 mM of each aromatic amino acids (Phe/Tyr/Trp), 0.1 mM Amplex Red and 2 U/mL of HRP. The final reaction in each well of 25 μL consisted of 1 nM of IL4I1, 1 mM of each residues (Phe, Tyr and Trp), 0.05 mM Amplex Red and 1 U/mL of HRP. It should be noted that the concentrations of Amplex Red and HRP used here were in excess such that the conversion of H2O2 to resorufin product occurred instantaneously and was non-rate limiting. Reactions were allowed to proceed for 120 minutes followed by fluorescence readout on a Spectramax with the following set parameters: 544 nm excitation/590 nm emission, 570 nm cutoff (EnVision is an alternative reader). Dose-response curves were generated by plotting percent effect (% product conversion; Y-axis) vs. Log10 compound concentrations (X-axis). EC50 values were calculated using a non-linear regression, four-parameters sigmoidal dose-response model and are shown in Potency Table 1.

recombinant IL4I1, sequence (Q96RQ9 22-567): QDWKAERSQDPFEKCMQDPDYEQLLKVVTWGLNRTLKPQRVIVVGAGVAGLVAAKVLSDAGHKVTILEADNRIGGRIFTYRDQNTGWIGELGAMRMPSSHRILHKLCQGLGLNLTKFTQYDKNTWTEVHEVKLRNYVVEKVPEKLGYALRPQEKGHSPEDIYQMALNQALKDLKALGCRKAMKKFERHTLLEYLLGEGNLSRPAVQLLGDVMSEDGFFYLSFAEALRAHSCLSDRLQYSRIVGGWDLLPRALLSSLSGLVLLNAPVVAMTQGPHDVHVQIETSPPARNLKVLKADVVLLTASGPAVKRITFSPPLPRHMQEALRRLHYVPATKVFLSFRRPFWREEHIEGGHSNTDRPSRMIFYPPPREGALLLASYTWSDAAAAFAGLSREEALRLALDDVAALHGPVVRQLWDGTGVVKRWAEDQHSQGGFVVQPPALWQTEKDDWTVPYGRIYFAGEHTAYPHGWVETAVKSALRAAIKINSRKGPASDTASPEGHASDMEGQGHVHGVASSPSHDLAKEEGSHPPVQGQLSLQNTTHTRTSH

By EC50 is commonly meant the concentration needed to bring the measured effect to its halfway point. Turning to `O=C1C(=O)N(C2CCCC2)CCN1Cc1ncc(-c2cn[nH]c2)cc1F` [Example 16, 1-cyclopentyl-4-((3-fluoro-5-(1H-pyrazol-4-yl)pyridin-2-yl)methyl)piperazine-2,3-dione], the 50% effective concentration (EC50) was found to be 16 nM.
Take `O=C1C(=O)N(C2CCCC2)CCN1Cc1ccc(-c2cncs2)nc1` [Example 17, 1-cyclopentyl-4-((6-(thiazol-5-yl)pyridin-3-yl)methyl)piperazine-2,3-dione]: the EC50 came out at 7 nM.
On to `O=C1C(=O)N(C2CCCC2)CCN1Cc1ccc(-c2cnco2)nc1` [Example 18, 1-cyclopentyl-4-((6-(oxazol-5-yl)pyridin-3-yl)methyl)piperazine-2,3-dione], for which the concentration giving a half-maximal response (EC50) stood at 41 nM.
For `O=C1C(=O)N(C2CCCC2)CCN1Cc1ccc(-c2cncs2)cc1F` [Example 19, 1-cyclopentyl-4-(2-fluoro-4-(thiazol-5-yl)benzyl)piperazine-2,3-dione], the EC50 turned out to be 7 nM.
`O=C1C(=O)N(C2CCC2)CCN1Cc1ccc(-c2cccc(F)c2)nn1` [Example 20, 1-cyclobutyl-4-((6-(3-fluorophenyl)pyridazin-3-yl)methyl)piperazine-2,3-dione]: the EC50 came out at 5 nM.
`O=C1C(=O)N(C2CCC2)CCN1Cc1ccc(-c2cccc(F)c2F)nn1` [Example 21, 1-cyclobutyl-4-((6-(2,3-difluorophenyl)pyridazin-3-yl)methyl)piperazine-2,3-dione]: the 50% effective concentration (EC50) came to 14 nM.
Regarding `O=C1C(=O)N(C2CCC2)CCN1Cc1ccc(-c2cc(F)cc(F)c2)nn1` [Example 22, 1-cyclobutyl-4-((6-(3,5-difluorophenyl)pyridazin-3-yl)methyl)piperazine-2,3-dione], the EC50 turned out to be 22 nM.
For `O=C1C(=O)N(C2CCCC2)CCN1Cc1ccc(-c2cn[nH]c2)cc1F` [Example 23, 1-cyclopentyl-4-(2-fluoro-4-(1H-pyrazol-4-yl)benzyl)piperazine-2,3-dione] the value was 21 nM; for `O=C1C(=O)N(C2CCCC2)CCN1Cc1ccc(-c2cn[nH]c2)nc1` [Example 24, 1-((6-(1H-pyrazol-4-yl)pyridin-3-yl)methyl)-4-cyclopentylpiperazine-2,3-dione], 30 nM; for `O=C1C(=O)N(C2CCC2)CCN1Cc1ccc(-c2cn[nH]c2)nn1` [Example 25, 1-((6-(1H-pyrazol-4-yl)pyridazin-3-yl)methyl)-4-cyclobutylpiperazine-2,3-dione], 21 nM.
As for `O=C1C(=O)N(C2CCC2)CCN1Cc1ccc(-c2ccccc2)cn1` [Example 26, 1-cyclobutyl-4-((5-phenylpyridin-2-yl)methyl)piperazine-2,3-dione], the EC50 came to 6 nM.
For `O=C1C(=O)N(C2CCC2)CCN1Cc1nnc(-c2cccc(F)c2)s1` [Example 27, 1-cyclobutyl-4-((5-(3-fluorophenyl)-1,3,4-thiadiazol-2-yl)methyl)piperazine-2,3-dione] the value was 5 nM; for `O=c1c(=O)n(C2CCC2)ccn1Cc1nnc(-c2cccc(F)c2)s1` [Example 28, 1-cyclobutyl-4-((5-(3-fluorophenyl)-1,3,4-thiadiazol-2-yl)methyl)-1,4-dihydropyrazine-2,3-dione], 8 nM.
The result for `O=C1C(=O)N(C2CCC2)CCN1Cc1nnc(-c2ccc(F)cc2)s1` [Example 29, 1-cyclobutyl-4-((5-(4-fluorophenyl)-1,3,4-thiadiazol-2-yl)methyl)piperazine-2,3-dione] reads 9 nM; that for `O=c1c(=O)n(C2CCC2)ccn1Cc1nnc(-c2ccc(F)cc2)s1` [Example 30, 1-cyclobutyl-4-((5-(4-fluorophenyl)-1,3,4-thiadiazol-2-yl)methyl)-1,4-dihydropyrazine-2,3-dione], 8 nM.
In the case of `O=C1C(=O)N(C23CC(C2)C3)CCN1Cc1nnc(-c2ccccc2F)s1` [Example 31, 1-(bicyclo[1.1.1]pentan-1-yl)-4-((5-(2-fluorophenyl)-1,3,4-thiadiazol-2-yl)methyl)piperazine-2,3-dione], the EC50 was found to be 6 nM.
The result for `O=C1C(=O)N(C23CC(C2)C3)CCN1Cc1nnc(-c2ccc(F)cc2)s1` [Example 32, 1-(bicyclo[1.1.1]pentan-1-yl)-4-((5-(4-fluorophenyl)-1,3,4-thiadiazol-2-yl)methyl)piperazine-2,3-dione] reads 5 nM; that for `O=C1C(=O)N(C2CCC2)CCN1Cc1nnc(-c2ccccc2F)s1` [Example 33, 1-cyclobutyl-4-((5-(2-fluorophenyl)-1,3,4-thiadiazol-2-yl)methyl)piperazine-2,3-dione], 8 nM; that for `O=c1c(=O)n(C2CCC2)ccn1Cc1nnc(-c2ccccc2F)s1` [Example 34, 1-cyclobutyl-4-((5-(2-fluorophenyl)-1,3,4-thiadiazol-2-yl)methyl)-1,4-dihydropyrazine-2,3-dione], 34 nM.
As to `O=c1c(=O)n(C2CCCC2)ccn1Cc1nnc(-c2ccc(F)cc2)s1` [Example 35, 1-cyclopentyl-4-((5-(4-fluorophenyl)-1,3,4-thiadiazol-2-yl)methyl)-1,4-dihydropyrazine-2,3-dione], the half-maximal effective concentration (EC50) was 3 nM.
On to `O=c1c(=O)n(C23CC(C2)C3)ccn1Cc1nnc(-c2ccc(F)cc2)s1` [Example 36, 1-(bicyclo[1.1.1]pentan-1-yl)-4-((5-(4-fluorophenyl)-1,3,4-thiadiazol-2-yl)methyl)-1,4-dihydropyrazine-2,3-dione], for which the concentration giving a half-maximal response (EC50) stood at 6 nM.
On to `O=C1C(=O)N(C2CCCC2)CCN1Cc1ccc(-c2cccnc2)nn1` [Example 37, 1-cyclopentyl-4-((6-(pyridin-3-yl)pyridazin-3-yl)methyl)piperazine-2,3-dione], for which the concentration for a half-maximal effect (EC50) worked out at 18 nM.
Take `O=C1C(=O)N(C23CC(C2)C3)CCN1Cc1ccc(-c2ccccc2)nn1` [Example 38, 1-(bicyclo[1.1.1]pentan-1-yl)-4-((6-phenylpyridazin-3-yl)methyl)piperazine-2,3-dione]: the 50% effective concentration (EC50) was found to be 23 nM.
On to `O=c1c(=O)n([C@H]2C[C@H]3C[C@H]3C2)ccn1Cc1nnc(-c2ccccc2)s1` [Example 39, 1-((cis)-bicyclo[3.1.0]hexan-3-yl)-4-((5-phenyl-1,3,4-thiadiazol-2-yl)methyl)-1,4-dihydropyrazine-2,3-dione], for which the concentration giving a half-maximal response (EC50) was determined as 3 nM.
Take `O=C1C(=O)N(C2CC3CC3C2)CCN1Cc1nnc(-c2ccc(F)cc2)s1` (stereo not drawn) [Example 40, 1-((cis)-bicyclo[3.1.0]hexan-3-yl)-4-((5-(4-fluorophenyl)-1,3,4-thiadiazol-2-yl)methyl)piperazine-2,3-dione]: the EC50 is 4 nM.
In the case of `O=c1c(=O)n([C@H]2C[C@H]3C[C@H]3C2)ccn1Cc1nnc(-c2ccc(F)cc2)s1` [Example 41, 1-((cis)-bicyclo[3.1.0]hexan-3-yl)-4-((5-(4-fluorophenyl)-1,3,4-thiadiazol-2-yl)methyl)-1,4-dihydropyrazine-2,3-dione], the EC50 came to 2 nM.
As to `O=C1C(=O)N([C@H]2C[C@H]3C[C@H]3C2)CCN1Cc1nnc(-c2cccc(F)c2)s1` [Example 42, 1-((cis)-bicyclo[3.1.0]hexan-3-yl)-4-((5-(3-fluorophenyl)-1,3,4-thiadiazol-2-yl)methyl)piperazine-2,3-dione], the EC50 worked out at 5 nM.
For `O=c1c(=O)n([C@H]2C[C@H]3C[C@H]3C2)ccn1Cc1nnc(-c2cccc(F)c2)s1` [Example 43, 1-((cis)-bicyclo[3.1.0]hexan-3-yl)-4-((5-(3-fluorophenyl)-1,3,4-thiadiazol-2-yl)methyl)-1,4-dihydropyrazine-2,3-dione], the concentration for a half-maximal effect (EC50) is 3 nM.
On to `O=C1C(=O)N([C@H]2C[C@H]3C[C@H]3C2)CCN1Cc1nnc(-c2ccccc2F)s1` [Example 44, 1-((cis)-bicyclo[3.1.0]hexan-3-yl)-4-((5-(2-fluorophenyl)-1,3,4-thiadiazol-2-yl)methyl)piperazine-2,3-dione], for which the EC50 is 7 nM.
With `O=c1c(=O)n([C@H]2C[C@H]3C[C@H]3C2)ccn1Cc1nnc(-c2ccccc2F)s1` [Example 45, 1-((cis)-bicyclo[3.1.0]hexan-3-yl)-4-((5-(2-fluorophenyl)-1,3,4-thiadiazol-2-yl)methyl)-1,4-dihydropyrazine-2,3-dione], the half-maximal effective concentration (EC50) was found to be 5 nM.
Take `O=C1C(=O)N(C2CCCC2)CCN1Cc1cnc(-c2ccccc2F)cn1` [Example 46, 1-cyclopentyl-4-((5-(2-fluorophenyl)pyrazin-2-yl)methyl)piperazine-2,3-dione]: the EC50 was 13 nM.
`O=c1c(=O)n([C@H]2C[C@H](c3ccccc3)C2)ccn1Cc1nnc(-c2ccccc2)s1` [Example 47, 1-((5-phenyl-1,3,4-thiadiazol-2-yl)methyl)-4-((trans)-3-phenylcyclobutyl)-1,4-dihydropyrazine-2,3-dione]: the EC50 was determined as 3 nM.
